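1) Cells in 96-well plates. 2) Compound, 48 h, 5 concentrations. 3) Linear interpolation between surrounding doses. 4) Unreached endpoint = highest concentration. GI50 is the concentration that inhibits growth by half. TGI marks complete inhibition of growth.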
Legend:
Assay in all cases: NCI-60 cell line screen, 48 h
[1] = test system: OVCAR-5 ovarian
[2] = test system: SN12C renal
[3] = test system: TK-10 renal
[4] = test system: U251 CNS
[5] = test system: RXF 393 renal
[6] = test system: SF-295 CNS
[7] = test system: CAKI-1 renal
[8] = test system: KM12 colon
[9] = test system: UO-31 renal
[10] = test system: SNB-19 CNS
[11] = test system: HOP-62 NSCLC
[12] = test system: HCT-116 colon
[13] = test system: CCRF-CEM leukemia
[14] = test system: LOX IMVI melanoma
[15] = test system: SK-MEL-5 melanoma
[16] = test system: MDA-MB-435
[17] = test system: A498 renal
[18] = test system: PC-3 prostate
[19] = test system: MALME-3M melanoma
[20] = test system: HL-60(TB) leukemia
[21] = test system: ACHN renal
[22] = test system: OVCAR-8 ovarian
[23] = test system: MDA-MB-231 breast
[24] = test system: NCI-H460 lung
[25] = test system: NCI-H23 lung
[26] = test system: COLO 205 colon
[27] = test system: MOLT-4 leukemia
[28] = test system: SW-620 colon
[29] = test system: HOP-92 NSCLC
[30] = test system: UACC-257 melanoma
[31] = test system: SNB-75 CNS
[32] = test system: EKVX NSCLC
[33] = test system: 786-0 renal
[34] = test system: K-562 leukemia
[35] = test system: HT29 colon
[36] = test system: OVCAR-4 ovarian
[37] = test system: T-47D breast
[38] = test system: DU-145 prostate
[39] = test system: NCI/ADR-RES ovarian
[40] = test system: UACC-62 melanoma
[41] = test system: NCI-H522 lung
[42] = test system: SK-MEL-2 melanoma
[43] = test system: A549 NSCLC
[44] = test system: OVCAR-3 ovarian
[45] = test system: RPMI-8226 leukemia
[46] = test system: SK-MEL-28 melanoma
[47] = test system: NCI-H226 lung
[48] = test system: HCC-2998 colon
[49] = test system: SF-268 CNS
[50] = test system: HS 578T breast
[51] = test system: SF-539 CNS
[52] = test system: M14 melanoma
[53] = test system: MCF7 breast
[54] = test system: BT-549 breast
[55] = test system: HCT-15 colon
[56] = test system: SK-OV-3 ovarian

Structure (SMILES): COc1cc2c3c(n(CCCN=[N+]=[N-])c(=O)c2cc1OC)-c1ccc(C#N)cc1C3=O
- GI50 [1]: 88.7 µM
- TGI [1]: > 100 µM
- GI50 [2]: 15.7 µM
- TGI [2]: > 100 µM
- GI50 [3]: 17 µM
- TGI [3]: 34.9 µM
- GI50 [4]: 10.5 µM
- TGI [4]: 27.6 µM
- GI50 [5]: 12.2 µM
- TGI [5]: 30.2 µM
- GI50 [6]: 14.1 µM
- TGI [6]: 31.5 µM
- GI50 [7]: 32 µM
- TGI [7]: > 100 µM
- GI50 [8]: > 100 µM
- TGI [8]: > 100 µM
- GI50 [9]: > 100 µM
- TGI [9]: > 100 µM
- GI50 [10]: 37 µM
- TGI [10]: > 100 µM
- GI50 [11]: 14.2 µM
- TGI [11]: 33.3 µM
- GI50 [12]: 24.1 µM
- TGI [12]: > 100 µM
- GI50 [13]: > 100 µM
- TGI [13]: > 100 µM
- GI50 [14]: 16.9 µM
- TGI [14]: 46 µM
- GI50 [15]: > 100 µM
- TGI [15]: > 100 µM
- GI50 [16]: > 100 µM
- TGI [16]: > 100 µM
- GI50 [17]: 18.5 µM
- TGI [17]: 58.5 µM
- GI50 [18]: > 100 µM
- TGI [18]: > 100 µM
- GI50 [19]: 70.8 µM
- TGI [19]: > 100 µM
- GI50 [20]: > 100 µM
- TGI [20]: > 100 µM
- GI50 [21]: 3.3 µM
- TGI [21]: 13.1 µM
- GI50 [22]: 49.1 µM
- TGI [22]: > 100 µM
- GI50 [23]: 2.93 µM
- TGI [23]: 16.2 µM
- GI50 [24]: 27.7 µM
- TGI [24]: > 100 µM
- GI50 [25]: 8.75 µM
- TGI [25]: 22 µM
- GI50 [26]: 92.3 µM
- TGI [26]: > 100 µM
- GI50 [27]: > 100 µM
- TGI [27]: > 100 µM
- GI50 [28]: > 100 µM
- TGI [28]: > 100 µM
- GI50 [29]: 21.2 µM
- TGI [29]: 79.1 µM
- GI50 [30]: > 100 µM
- TGI [30]: > 100 µM
- GI50 [31]: 4.27 µM
- TGI [31]: 21.4 µM
- GI50 [32]: 28.9 µM
- TGI [32]: > 100 µM
- GI50 [33]: 13.1 µM
- TGI [33]: 33.7 µM
- GI50 [34]: > 100 µM
- TGI [34]: > 100 µM
- GI50 [35]: > 100 µM
- TGI [35]: > 100 µM
- GI50 [36]: > 100 µM
- TGI [36]: > 100 µM
- GI50 [37]: > 100 µM
- TGI [37]: > 100 µM
- GI50 [38]: 34.3 µM
- TGI [38]: > 100 µM
- GI50 [39]: 72.4 µM
- TGI [39]: > 100 µM
- GI50 [40]: 12.4 µM
- TGI [40]: 37.4 µM
- GI50 [41]: 14.5 µM
- TGI [41]: > 100 µM
- GI50 [42]: 16.6 µM
- TGI [42]: 86.1 µM
- GI50 [43]: > 100 µM
- TGI [43]: > 100 µM
- GI50 [44]: 17 µM
- TGI [44]: 58.2 µM
- GI50 [45]: > 100 µM
- TGI [45]: > 100 µM
- GI50 [46]: > 100 µM
- TGI [46]: > 100 µM
- GI50 [47]: 42.1 µM
- TGI [47]: > 100 µM
- GI50 [48]: 44.6 µM
- TGI [48]: > 100 µM
- GI50 [49]: 17.7 µM
- TGI [49]: > 100 µM
- GI50 [50]: 9.67 µM
- TGI [50]: 38.9 µM
- GI50 [51]: 17.4 µM
- TGI [51]: 47.2 µM
- GI50 [52]: 46.7 µM
- TGI [52]: > 100 µM
- GI50 [53]: > 100 µM
- TGI [53]: > 100 µM
- GI50 [54]: 12.9 µM
- TGI [54]: 28 µM
- GI50 [55]: 57.9 µM
- TGI [55]: > 100 µM
- GI50 [56]: 15.5 µM
- TGI [56]: 40.3 µM
